From patent US10590147B1, “Spirooxindole-pyrrolothiazole heterocyclic hybrids” (KING SAUD UNIVERSITY, priority 2019, dated 2020)
Converted amounts (≈) assume the structure as drawn. “And” between values parts separate entries of the source, which are not always exact repeats. Identical values can stand only once. “Also recorded” adds a separate entry of the source. Like-named read-outs stand apart in the source and are kept apart here.

Key:
Assay type in all cases: cell-based
Escherichia coli [1] = experiment: MIC/MBC by two-fold dilution, microtiter 96 well plate method; settings: E. coli (ATCC—25922), standard/control strain
Protocol: (§1) Compounds 6a and 6b were tested for their antimicrobial activity against both gram positive and gram negative drug-resistant bacteria. Minimum inhibitory concentration (MIC) and minimum bactericidal concentration (MBC) values for compounds 6a and 6b, as compared with a reference antibacterial drug (ampicillin), for Escherichia coli (EC), Pseudomonas aeruginosa (PS), Salmonella typhi (ST), Staphylococcus aureus (SA), and Staphylococcus epidermis (SE) are reported in Tables 2A and 2B.
(§2) The quantitative and qualitative screening of anti-bacterial activity of compounds 6a and 6b was conducted, the results being described above. Quantitative screening was determined by minimal inhibitory concentration (MIC) and minimal bactericidal concentration (MBC), while qualitative screening was accomplished by disc diffusion method. E. coli (ATCC—25922) and S. epidermis (ATCC 12228) were used as standard strains, and drug-resistant pathogens P. aeruginosa, S. typhi, and S. aureus were used to screen the antimicrobial activity. Gram negative bacteria were maintained on nutrient broth (NB)/agar plates (NA) and gram positive bacteria were maintained on trypticase soy broth (TSB)/agar plates (TSA). The compounds 6a and 6b concentration range was prepared by two-fold dilution in a sterile broth from the stock, using a microtiter 96 well plate method. Twelve dilutions of each compound, ranging from 7500 to 3.65 μg/ml, were tested, and Ampicillin was used as a positive control agent (with a range of 500 to 0.24 μg/ml).

Staphylococcus epidermis [2] = experiment: as above; settings: S. epidermis (ATCC 12228), standard/control strain
Protocol: as §1, §2

Pseudomonas aeruginosa [3] = experiment: Disc diffusion, zone of inhibition; parameters: key to Zone of inhibition (class): R: Resistant; settings: drug-resistant P. aeruginosa; for Zone of inhibition: diameter: 37° C., 24h
Protocol: (§3) The qualitative screenings of antimicrobial activity were measured by plating in petri dishes to determine the formation of zones of inhibition for bacterial pathogens tested against compounds 6a, 6b and the standard antibiotic ampicillin.
as §2
(§4) The mid log bacterial inoculum was speeded on NA/TSA and the loaded disc was placed on agar plates and incubated at 37° C. for 24h. After this period, the inhibitions produced by the compounds around the disc were measured using antibiotic zone scale (Hi-Media, Mumbai, India) and zone of inhibitions were measured in mm.

Salmonella typhi [4] = experiment: Disc diffusion, zone of inhibition; parameters: key to Zone of inhibition (class): R: Resistant; settings: drug-resistant S. typhi; for Zone of inhibition: diameter: 37° C., 24h
Protocol: as §3, §2, §4

Staphylococcus aureus [5] = experiment: Disc diffusion, zone of inhibition; parameters: key to Zone of inhibition (class): R: Resistant; settings: drug-resistant S. aureus; for Zone of inhibition: diameter: 37° C., 24h
Protocol: as §3, §2, §4

Escherichia coli [6] = experiment: Disc diffusion, zone of inhibition; settings: E. coli control strain; for Zone of inhibition: diameter: 37° C., 24h
Protocol: as §3, §2, §4

Staphylococcus epidermis [7] = experiment: Disc diffusion, zone of inhibition; settings: S. epidermis control strain; for Zone of inhibition: diameter: 37° C., 24h
Protocol: as §3, §2, §4

Pseudomonas aeruginosa [8] = experiment: MIC/MBC by two-fold dilution, microtiter 96 well plate method; settings: drug-resistant P. aeruginosa
Protocol: as §1, §2

Salmonella typhi [9] = experiment: as above; settings: drug-resistant S. typhi
Protocol: as §1, §2

Staphylococcus aureus [10] = experiment: as above; settings: drug-resistant S. aureus
Protocol: as §1, §2

P. aeruginosa = experiment: AO/EB live/dead bacterial double staining; settings: P. aeruginosa treated at MIC, 4 hours; fluorescent microscope
Protocol: (§5) The acridine orange (AO) and ethidium bromide (EB) double staining method was used to analyse the Live/dead bacterial cells for untreated and compound 6a-treated S. aureus and P. aeruginosa cells. Both sets of cells, treated and untreated for each of the two bacteria, were stained with AO/EB for 15 minutes. The unbound dyes were removed by rinsing the cells twice with phosphate buffer saline (PBS). 10 μl samples of each were then placed on a glass slide with coverslip, and observed using a ZEISS inverted florescent microscope. The untreated gram positive (FIG. 6A) and gram negative (FIG. 6C) bacterial cells appeared green due to the presence of healthy, viable cells with intact/undamaged cell membranes and uniform chromatin. In contrast, the compound 6a-treated cells (treated gram positive in FIG. 6B, and treated gram negative in 6D) appeared red due to the resulting dents, blisters and damaged cell walls on bacterial cells, providing entry for the EB dye. Thus, the AO/EB double staining confirms the bactericidal action of compound 6a through cell wall and cell membrane damage.
(§6) Fluorescent dye stock solution was prepared by dissolving equal quantities of acridine orange (AO) and ethidium bromide (EB)—10 mg each—in 10 ml of PBS. The working solution was prepared by diluting 200 μl of stock solution into 10 ml of PBS. […]

S. aureus = experiment: AO/EB live/dead bacterial double staining; settings: S. aureus treated at MIC, 4 hours; fluorescent microscope
Protocol: as §5, §6

## CC1(C)S[C@@H]2[C@H](NC(=O)[C@H](N)c3ccccc3)C(=O)N2[C@H]1C(=O)O [Ampicillin, reference compound]
Escherichia coli [1]; Escherichia coli, read-out: MBC
  MBC: 7.81 µg/mL (≈ 22.4 µM)
Escherichia coli [1]; Escherichia coli, read-out: MIC
  MIC: 3.9 µg/mL (≈ 11.2 µM)
Staphylococcus epidermis [2]; Staphylococcus, ATCC12228, read-out: MBC
  MBC: 7.81 µg/mL (≈ 22.4 µM)
Staphylococcus epidermis [2]; Staphylococcus, ATCC12228, read-out: MIC
  MIC: 3.9 µg/mL (≈ 11.2 µM)
Pseudomonas aeruginosa [3]; 25 μg/disc
  Zone of inhibition (class): R
Salmonella typhi [4]; 25 μg/disc
  Zone of inhibition (class): R
Staphylococcus aureus [5]; 25 μg/disc
  Zone of inhibition (class): R
Staphylococcus aureus [5]; Staphylococcus aureus, 25 μg/disc, read-out: Zone of inhibition: diameter
  zone of inhibition at 25 µg/disc: < 13 mm
Escherichia coli [6]; Escherichia coli, 25 μg/disc, read-out: Zone of inhibition: diameter
  zone of inhibition at 25 µg/disc: 22.3 ± 1.77 mm
Staphylococcus epidermis [7]; Staphylococcus, 25 μg/disc, read-out: Zone of inhibition: diameter
  zone of inhibition at 25 µg/disc: 23.3 mm

## O=C1C(=Cc2ccccc2F)CNCC12C(c1ccccc1F)C1CSCN1C21C(=O)Nc2ccccc21 (stereo not drawn) [Compound 6b, spiro[5.3″ ]-oxindole-spiro-[6.2′]-6′-(2-fluorophenylmethylidene)tetrahydro-4′(1H)-pyridinone-7-(2-fluorophenyl)tetrahydro-1H-pyrrolo[1,2-c][1,3] thiazole]
Escherichia coli [1]
  MBC: 58.55 µg/mL (≈ 111 µM)
  MIC: 29.25 µg/mL (≈ 55.2 µM)
Pseudomonas aeruginosa [8]
  MBC: 117.15 µg/mL (≈ 221 µM)
  MIC: 58.55 µg/mL (≈ 111 µM)
Salmonella typhi [9]
  MBC: 117.15 µg/mL (≈ 221 µM)
  MIC: 58.55 µg/mL (≈ 111 µM)
Staphylococcus aureus [10]
  MBC: 117.15 µg/mL (≈ 221 µM)
  MIC: 68.55 µg/mL (≈ 129 µM)
Staphylococcus epidermis [2]
  MBC: 58.55 µg/mL (≈ 111 µM)
  MIC: 29.25 µg/mL (≈ 55.2 µM)
Pseudomonas aeruginosa [3]; 120 μg/disc
  Zone of inhibition: diameter: 16.3 ± 1.63 mm
Salmonella typhi [4]; 120 μg/disc
  Zone of inhibition: diameter: 16.3 ± 1.08 mm
Staphylococcus aureus [5]; 120 μg/disc
  Zone of inhibition: diameter: 17.6 ± 1.47 mm
Escherichia coli [6]; 120 μg/disc
  Zone of inhibition: diameter: 18.6 ± 1.47 mm
Staphylococcus epidermis [7]; 120 μg/disc
  Zone of inhibition: diameter: 19.3 mm

## O=C1C(=Cc2ccc(F)cc2)CNCC12C(c1ccc(F)cc1)C1CSCN1C21C(=O)Nc2ccccc21 (stereo not drawn) [Compound 6a, spiro[5.3″ ]-oxindole-spiro-[6.2′]-6′-(4-fluorophenylmethylidene)tetrahydro-4′(1H)-pyridinone-7-(4-fluorophenyl)tetrahydro-1H-pyrrolo[1,2-c][1,3] thiazole]
Escherichia coli [1]
  MBC: 29.25 µg/mL (≈ 55.2 µM)
  MIC: 14.62 µg/mL (≈ 27.6 µM)
Pseudomonas aeruginosa [8]
  MBC: 58.55 µg/mL (≈ 111 µM)
  MIC: 29.25 µg/mL (≈ 55.2 µM)
Salmonella typhi [9]
  MBC: 58.55 µg/mL (≈ 111 µM)
  MIC: 29.25 µg/mL (≈ 55.2 µM)
Staphylococcus aureus [10]
  MBC: 58.55 µg/mL (≈ 111 µM)
  MIC: 29.25 µg/mL (≈ 55.2 µM)
Staphylococcus epidermis [2]
  MBC: 29.25 µg/mL (≈ 55.2 µM)
  MIC: 14.62 µg/mL (≈ 27.6 µM)
Pseudomonas aeruginosa [3]; 60 μg/disc
  Zone of inhibition: diameter: 19.3±0.81 mm
Salmonella typhi [4]; 60 μg/disc
  Zone of inhibition: diameter: 22.3±1.47 mm
Staphylococcus aureus [5]; 60 μg/disc
  Zone of inhibition: diameter: 26.3±0.81 mm
Escherichia coli [6]; 60 μg/disc
  Zone of inhibition: diameter: 27.3±1.08 mm
Staphylococcus epidermis [7]; 60 μg/disc
  Zone of inhibition: diameter: 31.3±1.08 mm and 31.3 mm
P. aeruginosa
  Live/dead AO/EB double staining appearance of treated cells: dented, blistered and damaged cell walls; also recorded: appeared red
S. aureus
  Live/dead AO/EB double staining appearance of treated cells: dented, blistered and damaged cell walls; also recorded: appeared red
